Measurements: publication PMC12147183, “Lacritin cleavage-potentiated targeting of iron - respiratory reciprocity promotes bacterial death” (The Journal of Biological Chemistry, 2025)
Peptide text beside a SMILES is read from it.

How the values were obtained:
GKY20 = GKY20 (Homo sapiens, UniProt P00734); experiment: Dot blot binding assay on immobilized GKY20; conditions: 20 μM peptide, 2 h at 35 °C, LI-COR detection
Experimental: After washing three times for 10 min, each with 10 ml of 10 mM Na2HPO4, 1.8 mM KH2PO4, 2.7 mM KCl, 137 mM NaCl (pH 7.2), nitrocellulose membranes were incubated overnight at 4 °C with 1 μg/ml of either rabbit polyclonal ab-C-term with specificity for the C-terminal 54 amino acids of lacritin ([86]) appropriate for N-104 or its analogs, or with rabbit anti-lacritin N-terminus antibody ab-N-term appropriate for C-95. Membranes washed three times for 10 min each with 10 ml of 10 mM Na2HPO4, 1.8 mM KH2PO4, 2.7 mM KCl, 137 mM NaCl (pH 7.2), were then incubated with 0.1 μg/ml of IRDye 680RD labeled donkey antirabbit IgG (926-68073, LI-COR) as described above for LI-COR Odyssey CLx detection.

[1] = tested on: ^14C-spermidine uptake by PA14; format: cell-based, Pseudomonas aeruginosa
Experimental: 100 μl aliquots (0.8 × 10^8 cfu) of PA14 cell cultures in 1 mM Na2HPO4, 0.18 mM KH2PO4, 0.27 mM KCl, 13.7 mM NaCl without or with 1, 10, 25, 50 or 100 μM N-104 (or N-80/C-25 or C-95) for 45 min at 35 °C were incubated with 1 μl of 10 mM [1,4-^14C]putrescine (0.1 mCi/ml; ARC-0245–250, American Radiolabeled Chemicals) or [1,4-^14C]spermidine (0.1 mCi/ml; ARC-3138–50, American Radiolabeled Chemicals) for 15 min at 35 °C. Cell pellets were washed four times with 100 μl of 10 mM Na2HPO4, 1.8 mM KH2PO4, 2.7 mM KCl, 137 mM NaCl (pH 7.2) and then transferred to 4 ml of scintillation fluid (1200.437, PerkinElmer OptiPhase HiSafe 3) for analysis in a Beckman Coulter LS6500. Also assessed was radioactivity from the last wash. Single-molecule transportation per cell was estimated using standard curves for each radiolabeled polyamine.

His-tagged FeoB = His-tagged FeoB binding to peptide columns; design: species or system P. aeruginosa PAO1; conditions: step gradient 0.3, 0.5, 1.0 M KCl, 0.05% dodecyl-β-D-maltopyranoside, 4 °C, anti-His Western blot, n = 3
Experimental: We used the pFeoB plasmid ([6]) with feoB insert from P. aeruginosa PAO1 in pET41-a(+) with a C-terminal 8-His tag and kanamycin-resistant cassette, and E. coli EcCD00397460 plasmid (DNASU Plasmid Repository, Tempe Arizona) with potH insert in PCDF Bravo with C-terminal 10-His tag and streptomycin-resistant cassette. Plasmids of each were generated using standard procedures. His-tagged FeoB or PotH proteins in the supernatant were captured on Ni-Sepharose for 4 h with end-over-end rotation at 4 °C, washed with 10 mM HEPES potassium salt, 10% glycerol, 0.5 M NaCl, 10 mM MgSO4, 10 mM imidazole, and 0.05% dodecyl-β-D-maltopyranoside and eluted with the same wash buffer but containing 0.2 M NaCl and 0.5 M imidazole. Eluted FeoB and PotH were concentrated into 10 mM HEPES potassium salt, 10% glycerol, 10 mM MgSO4, 0.05% dodecyl-β-D-maltopyranoside and 0.15 M NaCl respectively on Amicon Ultra-0.5 Centrifugal UFC505024, UFC503024 and UFC900596 filter units.
N-104 and C-95 columns (1 ml each) equilibrated in 10 mM HEPES potassium salt, 10% glycerol, 10 mM MgSO4, 0.05% dodecyl-β-D-maltopyranoside, and 0.15 M NaCl were individually mixed at 4 °C overnight with purified FeoB and PotH. […]

Fe^2+ uptake by PA14 = format: cell-based, Pseudomonas aeruginosa
Experimental: Iron depletion was induced in PA14 cells (5 × 10^9 cfu in 10 ml 10 mM Na2HPO4, 1.8 mM KH2PO4, 2.7 mM KCl, 137 mM NaCl (pH 7.2) by treatment with the chelator 1 mM 2,2′-bipyridyl at room temperature for 1 h. After washing twice with 0.9% NaCl, cells were suspended in 1 ml of 1 mM Na2HPO4, 0.18 mM KH2PO4, 0.27 mM KCl, 13.7 mM NaCl for treatment without or with 1, 10, 25, 50 or 100 μM of N-104 (or negative control N-80/C-25 or C-95) for 45 min at 35 °C, incubated at the same temperature for 15 min with 100 μM FeSO4 and 13 mM ascorbic acid, washed twice with 1 mM Na2HPO4, 0.18 mM KH2PO4, 0.27 mM KCl, and 13.7 mM NaCl, and pelleted at 12,000g. The ferrozine assay ([54]) was subsequently employed. Briefly, cells in pellets were lysed with 20 μl of 50 mM NaOH, partially neutralized with 20 μl of 10 mM HCl, subjected to iron release with 20 μl of acidified 0.29 M KMnO4 for 30 min at 80 °C, cooled to room temperature, incubated with 7 μl of 30 mM ferrozine, 1.1 μl of 180 mM neocuproine, 15 μl of 5 M ammonium acetate and 15 μl of 1 M ascorbic acid for 30 min at room temperature and then centrifuged at 21,000g for 10 min. Cellular iron uptake could then be assessed from the supernatant OD565. Single-molecule transport per cell was estimated using a standard curve.

C[C@H](NC(=O)CNC(=O)[C@@H](NC(=O)[C@H](CO)NC(=O)[C@H](CC(=O)O)NC(=O)[C@H](CO)NC(=O)[C@H](CO)NC(=O)[C@H](C)NC(=O)[C@H](CC(=O)O)NC(=O)[C@@H](N)CCC(=O)O)[C@@H](C)O)C(=O)N[C@@H](CC(=O)O)C(=O)N1CCC[C@H]1C(=O)N[C@@H](C)C(=O)N[C@@H](CCC(N)=O)C(=O)N[C@@H](CCC(=O)O)C(=O)N[C@@H](C)C(=O)NCC(=O)N[C@H](C(=O)N[C@@H](CO)C(=O)N[C@@H](CCCCN)C(=O)N1CCC[C@H]1C(=O)N[C@@H](CC(N)=O)C(=O)N[C@@H](CCC(=O)O)C(=O)N[C@@H](CCC(=O)O)C(N)=O)[C@@H](C)O [C-95, reference compound] (H-EDASSDSTGADPAQEAGTSKPNEE-NH2)
binding to nitrocellulose-immobilized GKY20 (GKY20): Only N-104 bound to GKY20 | effect on ^14C-spermidine uptake ([1]; 1 to 100 μM peptide): had no effect | KCl elution of His-FeoB from immobilized peptide (His-tagged FeoB): lacked | effect on exogenous Fe^2+ uptake (Fe^2+ uptake by PA14; 1 to 100 μM peptide): had no effect

CC(=O)N[C@@H](C)C(=O)N[C@@H](CCC(N)=O)C(=O)N[C@@H](CCCCN)C(=O)N[C@@H](CC(C)C)C(=O)N[C@@H](CC(C)C)C(=O)N[C@@H](CCCCN)C(=O)N[C@@H](CCCCN)C(=O)N[C@@H](Cc1ccccc1)C(=O)N[C@@H](CO)C(=O)N[C@@H](CC(C)C)C(=O)N[C@@H](CC(C)C)C(=O)N[C@@H](CCCCN)C(=O)N1CCC[C@H]1C(=O)N[C@@H](Cc1c[nH]c2ccccc12)C(=O)N[C@@H](C)C(=O)O [N-104] (Ac-AQKLLKKFSLLKPWA-OH)
binding to nitrocellulose-immobilized GKY20 (GKY20): bound to GKY20 | IC50 [1]: 10 µM | KCl elution of His-FeoB from immobilized peptide (His-tagged FeoB): eluted with 0.5 and 1 M but not 0.3 M KCl | IC50 (Fe^2+ uptake by PA14; 1 h): 10 µM
